US20160090351A1, “INHIBITORS OF DEUBIQUITINATING PROTEASES” (BRANDEIS UNIVERSITY, priority 2013, published 2016)
One block for each compound: values may come before it.

Key:
USP9x = biological target: T1, USP9x (Homo sapiens, UniProt Q93008); experiment: HA-Ub-VS labeling in K562 cell lysates; format: biochemical
T1 construct: endogenous in cells; host or cells: K562 cell lysate
Experimental: HA-Ub-VS is commonly used to label DUBs in cell lysates. […] A. and B. K562 cell lysates were treated with compound for 40 minutes prior to activity labeling with HA-Ub-VS (1.5 μM) for 20 minutes. Samples were analyzed by SDS-PAGE and immunoblotting with anti-HA antibody. C. […] Values were derived by fitting to the in Prism.

20S proteasome = 20S proteasome (Homo sapiens, UniProt P28074); experiment: proteasome activity (purified 20S proteasome; GFP-Ub (G76V) in Cos-1 cells); format: biochemical; details: 20S proteasome 30 minutes, Suc-Leu-Tyr-AMC 100 μM; Cos-1 GFP-Ub (G76V) 8 hours
Experimental: A. Purified 20S proteasome was treated with compound for 30 minutes prior to addition of substrate (Suc-Leu-Tyr-AMC, 100 μM). B. Cos-1 cells expressing with GFP-Ub (G76V) were treated with compound for 8 hours, then the level of GFP was measured by flow cytometry.

BaF3.p210 = experiment: cytotoxicity in a panel of cell lines, Alamar Blue; format: cell-based, mouse
Experimental: Cytoxicity was tested against a panel of cell lines: (i) B16/F10, a metastatic mouse melanoma cell line that suppresses the tumor suppressor Gas1 (Growth arrest-specific 1); (ii) BaF3, an immortalized mouse pro-B cell line that depends on IL-3 for growth and proliferation (L-3 stimulates expression of the pro-survival Bc1-2 family member, Mc1-1; and USP9x is the deubiquitinase responsible for stabilizing Mc1-1); (iii) Cos-1, monkey kidney fibroblast immortalized with SV40 T antigen; (iv) BaF3.p210, BaF3 cells expressing Bcr-Abl kinase (p210), the mutant protein that causes chronic myelogenous leukemia, and the target of Gleevec (The expression of Bcr-Abl cause proliferation to become IL-3-independent. These cells have been widely used in the development of Bcr-Abl kinase inhibitors. USP9x stabilizes Bcr-Abl by removing Ub and blocking degradation via autophagy.); (v) HEK293T, human embryonic kidney cell line expressing SV40 T antigen; (vi) HeLa, human cervical adenocarcinoma cell line; (vii) MCF7, human breast cancer cell line; and (viii) NIH3T3, mouse fibroblast cell line. Of these, the only cells dependent on USP9x for survival are BaF3.p210 and BaF3. A. Cells were treated with a single dose of TU50 for 48 h and viable cells were measured using Alamar Blue®. EC50=8±2 μM for BaF3.p210. B. As above, except that cells were treated with TU50 for 72 h.

K562 cells = experiment: apoptosis, cell cycle and viability of K562 cells by flow cytometry; format: cell-based, human; details: annexin V-FITC / propidium iodide, 24 hours (TU50 also 8 hours)
Experimental: (§1) K562 cells are from a myelogenous leukemia line that expresses Bcr-Abl kinase. A. K562 cells were treated with TU50 for 24 hours after which time the cells were treated with annexin V-FITC and propidium iodide. Cells were then analyzed by flow cytometry. Cells showing only annexin V-FITC were considered apoptotic whereas cells showing both annexin V-FITC and propidium iodide were considered necrotic. N=2. All points show a significant difference to the vehicle (DMSO) with p<0.05. […] All points show a significant difference to vehicle (DMSO) with p<0.02. C. Same as A, but the incubation period was 8 hours. N>2. All points show a significant difference to DMSO with p<0.02. D, K562 cells were treated with TU50 for 4 hours. Samples were analyzed by SDS-PAGE and immunoblotting with anti-Bcr-Abl antibody. E. Quantitation of blot in D. The signal for tubulin was used to normalize the Bcr-Abl signal. N=3.
(§2) FIG. 40 depicts data showing that diphenyl carbonates induce the degradation of Bcr-Abl kinase. A. K562 cells were treated with C17 for 24 h (1 dose) then analyzed for Bcr-Abl expression by western blot with anti-Abl antibody. B. Quantitation of blots in A normalized to actin. C. K562 cells were treated with C17 for 24 h then the amount of cells in G1 and apoptosis were recorded (N=3). D. K562 were treated with C15 for 4 h then analyzed for Bcr-Abl expression using western blot. E. Quantitation of Bcr-Abl from D normalized to tubulin (N=4). F. Same K562 lysates were separately analyzed for K63-linked ubiquitin. G. Quantitation of blots in F (N=4). Differences between all bars is significant p<0.01). H. K562 cells were treated with C15 for 24 h after which time cells were fixed in ethanol, treated with propodium iodide/RNAse then analyzed by FACS. Viability was calculated using forward and side scatter. I. Same experiment as H but red fluorescence was measured to determine DNA content

Bcr-Abl kinase = experiment: Bcr-Abl levels in K562 cells by immunoblotting; format: cell-based, human
Experimental: as §1
(§3) FIG. 34 depicts data showing that diphenylcarbonates cause the accumulation of HMW-Ub and reduce the levels of Bcr-Abl in K562 cells. A. K562 cells were treated with diphenyl carbonates (50 μM) for 2 h and then assayed for the accumulation of K48-linked Ub. B. As in A, but Bcr-Abl was measured by immunoblotting with anti-Abl antibodies. C. K562 cells were treated with C17 (50 μM) in the presence and absence of bortezomib (6 μM) for 4 hours and Bcr-Abl was measured by immunblotting with anti-Abl antibodies. D. Quantitation of blot in C. Significance: DMSO relative to C17 and bortezomib p=0.002; DMSO relative to C17, p=0.03. E. K562 cells were treated with C15 for 4 hours then analyzed for SMAD4 monoubiquitination by western blot. F. Quantitation of blots in A. (N=3). See also FIG. 40.
as §2
(§4) Transfected cells were harvested 1.5 days post transfection. […] Typically clarified lysate was analyzed.

[1] = system: USP9x, USP19, USP7/8, USP28/15; experiment: HA-Ub-VS activity profiling in cell lysates, USPs; format: biochemical, human; details: HEK293T or Cos-1 lysate, compounds numbered as in FIG. 3
Experimental: (§5) HA-ubiquitin vinylsulfone (HA-Ub-VS) irreversibly labels DUBs by modifying the catalytic cysteine residue Inhibition of the DUB prevents HA-Ub-VS labeling and the band is. […] The interaction with UCHL1/3 is reversible.
(§6) Lysate labeling assay on untransfected cells (1.5 mg/mL) was run with the stated concentration of inhibitor (or 1% DMSO control) for between 19-60 mins. After this time HA-Ub-VS (1.5-0.7 μM) was added and incubated for 19 mins. After this time reaction mixture (9 μL) was removed and quenched in 2× (final concentration) reducing loading buffer. For recovery experiments, a lysate of 6 mg/mL was treated with saturating compound C14 (250 μM) and incubated for 40 mins. Afterward, the lysate was diluted to 0.6 mg/mL (final concentration of inhibitor 25 μM) in lysis buffer (final volume 100 μL), then HA-Ub-VS was added. Aliquots (15 μL) were removed at the stated time (5-119 mins) and immediately quenched in 2× (final concentration) reducing loading buffer. For all HA-Ub-VS experiments samples in loading buffer were heated only to 37° C. prior to loading on a gel. This assay is highly susceptible to concentration of lysate and HA-Ub-VS. Cell experiments were carried out as above with some modifications. For Cos-1 and MCF-7 cells, after trypsinization, media with compound was added to give a final concentration of compound equal to that used in the assay. Cell pellets were lysed on an ice/salt bath with a temperature of −5° C. and lysate was centrifuged for only 5 mins.
(§7) HA-Ub-VS is an irreversible inhibitor of DUBs that is widely used in activity profiling. If the DUB inhibitors react to form a thiocarbonylated enzyme as proposed (FIG. 29B), then HA-Ub-VS labeling will be blocked. Treatment of HEK 293T lysates with HA-Ub-VS produced the characteristic pattern of protein bands at 250, 150-100, 45, 38 and 36 kDa, generally ascribed to USP9x (292 kDa), USP19 (146 kDa), USP7/8 (128 and 127 kDa, respectively), USP28/15 (122 and 112 kDa, respectively), UCH-L5 (38 kDa), UCH-L3 (26 kDa) and UCH-L1 (25 kDa) as depicted in FIG. 31.
(§8) The effect of diphenylcarbonates on HA-Ub-VS labeling was assessed to investigate the selectivity of DUB inhibition. Lysates were preincubated with diphenyl carbonates (75 μM), then treated with HA-Ub-VS (FIG. 31A). […] These C17 and C22-sensitive DUBs are most likely USP9x, USP19, USP7/8 and UCHL5, based on molecular weight (FIGS. 31B and 38). The identity of USP7 was confirmed by immunoblotting (FIG. 38F). […] Similar behavior was observed on Cos-1 cell lysates (FIG. 38B).

UCH-L5, UCH-L3, UCH-L1 = experiment: HA-Ub-VS activity profiling in cell lysates, UCH-Ls; format: biochemical, human; details: HEK293T or Cos-1 lysate, compounds numbered as in FIG. 3
Experimental: as §5, §6, §7, §8

MCF7 cells = experiment: accumulation of K48- and K63-linked ubiquitin in MCF7 cells; format: cell-based, human; details: 100 μM
Experimental: FIG. 41 depicts data showing that compound C17 and C15 increase P53 expression and upregulate K48-linked Ub in MCF7 cells. A. MCF7 cells were treated with C17 (50 μM) for 48 h, dosed every 24 h and samples were analyzed for K48-linked ubiquitin. Note that samples were not sonicated, so only soluble HMW-Ub is recovered. B. A similar experiment to A but samples were analyzed for p53. C. Quantitation of blots in B. Each point has a P<0.001 for an increase relative to the DMSO vehicle (N=2). D. MCF7 cells were treated with C15 (100 μM) dosing every 2 h. The accumulation of K48-linked ubiquitin was assayed by SDS-PAGE and by western blot. E. MCF7 cells were treated as in D but the accumulation of K63-linked ubiquitin was assayed. F. Cos-1 cells were treated with C15 for 2 hours then analyzed for K48-linked ubiquitin by western blot. G. Similar experiment to F, but K63-linked ubiquitin was assayed. H. Quantitation of blots in G (N=3).
Similar results were obtained in Cos-1, CHO and HEK293T.
as §4

SMAD4 = SMAD4 monoubiquitination in K562 cells by western blot; format: cell-based, human
Experimental: as §3, §4

[2] = system: caspases or the proteasome; experiment: effect on caspases or proteasome (PARP cleavage), Example 5; format: cell-based; details: 100 μM
Experimental: (§9) Cells treated with 4 (100 μM; as defined in FIG. 3) show PARP cleavage that indicates caspases are active. The fluorescence of G76V ubiquitin-GFP fusion protein increases in the presence of inhibitor 4 (as defined in FIG. 3), as expected if degradation […] due to inhibition of DUBs. In contrast, GFP fluorescence […] when the proteasome is inhibited by bortezomib.

[3] = system: G76V ubiquitin-GFP fusion protein; experiment: G76V ubiquitin-GFP fusion protein fluorescence, Example 5; format: cell-based; details: Example 5, FIG. 9 bottom panel
Experimental: as §9

USP7 = experiment: MDM2 and P53 levels in treated cells, Example 6; format: cell-based; details: compound numbered as in FIG. 3
Experimental: P53 is a tumor suppressor that is rapidly degraded in tumor cells due to ubiquitination by MDM2. In turn, MDM2 is degraded by the ubiquitin/proteasome system. USP7 removes ubiquitin from MDM2, stabilizing the protein, and thereby causing degradation of P53. […] This behavior is observed when cells are treated with 4 (as defined in FIG. 3). Doxorubicin (Doxo) serves as a positive control.

cathepsin C = cathepsin C (Homo sapiens, UniProt P53634); experiment: cathepsin C inhibition; format: biochemical; details: compounds numbered as in FIG. 5
Sequence of cathepsin C (P53634 25-463, species assumed): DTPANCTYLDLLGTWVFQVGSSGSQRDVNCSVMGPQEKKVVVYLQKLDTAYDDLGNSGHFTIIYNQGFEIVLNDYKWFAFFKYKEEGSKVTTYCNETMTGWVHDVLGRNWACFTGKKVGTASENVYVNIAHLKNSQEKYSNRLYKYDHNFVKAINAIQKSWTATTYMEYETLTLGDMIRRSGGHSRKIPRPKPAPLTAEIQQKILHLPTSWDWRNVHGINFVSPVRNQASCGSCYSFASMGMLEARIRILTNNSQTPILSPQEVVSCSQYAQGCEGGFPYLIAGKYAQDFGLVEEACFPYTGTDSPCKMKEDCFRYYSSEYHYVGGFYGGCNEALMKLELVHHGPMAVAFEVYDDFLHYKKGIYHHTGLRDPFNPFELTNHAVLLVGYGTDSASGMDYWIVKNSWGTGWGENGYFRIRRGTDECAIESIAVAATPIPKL

T1 sequence (Q93008 whole entry): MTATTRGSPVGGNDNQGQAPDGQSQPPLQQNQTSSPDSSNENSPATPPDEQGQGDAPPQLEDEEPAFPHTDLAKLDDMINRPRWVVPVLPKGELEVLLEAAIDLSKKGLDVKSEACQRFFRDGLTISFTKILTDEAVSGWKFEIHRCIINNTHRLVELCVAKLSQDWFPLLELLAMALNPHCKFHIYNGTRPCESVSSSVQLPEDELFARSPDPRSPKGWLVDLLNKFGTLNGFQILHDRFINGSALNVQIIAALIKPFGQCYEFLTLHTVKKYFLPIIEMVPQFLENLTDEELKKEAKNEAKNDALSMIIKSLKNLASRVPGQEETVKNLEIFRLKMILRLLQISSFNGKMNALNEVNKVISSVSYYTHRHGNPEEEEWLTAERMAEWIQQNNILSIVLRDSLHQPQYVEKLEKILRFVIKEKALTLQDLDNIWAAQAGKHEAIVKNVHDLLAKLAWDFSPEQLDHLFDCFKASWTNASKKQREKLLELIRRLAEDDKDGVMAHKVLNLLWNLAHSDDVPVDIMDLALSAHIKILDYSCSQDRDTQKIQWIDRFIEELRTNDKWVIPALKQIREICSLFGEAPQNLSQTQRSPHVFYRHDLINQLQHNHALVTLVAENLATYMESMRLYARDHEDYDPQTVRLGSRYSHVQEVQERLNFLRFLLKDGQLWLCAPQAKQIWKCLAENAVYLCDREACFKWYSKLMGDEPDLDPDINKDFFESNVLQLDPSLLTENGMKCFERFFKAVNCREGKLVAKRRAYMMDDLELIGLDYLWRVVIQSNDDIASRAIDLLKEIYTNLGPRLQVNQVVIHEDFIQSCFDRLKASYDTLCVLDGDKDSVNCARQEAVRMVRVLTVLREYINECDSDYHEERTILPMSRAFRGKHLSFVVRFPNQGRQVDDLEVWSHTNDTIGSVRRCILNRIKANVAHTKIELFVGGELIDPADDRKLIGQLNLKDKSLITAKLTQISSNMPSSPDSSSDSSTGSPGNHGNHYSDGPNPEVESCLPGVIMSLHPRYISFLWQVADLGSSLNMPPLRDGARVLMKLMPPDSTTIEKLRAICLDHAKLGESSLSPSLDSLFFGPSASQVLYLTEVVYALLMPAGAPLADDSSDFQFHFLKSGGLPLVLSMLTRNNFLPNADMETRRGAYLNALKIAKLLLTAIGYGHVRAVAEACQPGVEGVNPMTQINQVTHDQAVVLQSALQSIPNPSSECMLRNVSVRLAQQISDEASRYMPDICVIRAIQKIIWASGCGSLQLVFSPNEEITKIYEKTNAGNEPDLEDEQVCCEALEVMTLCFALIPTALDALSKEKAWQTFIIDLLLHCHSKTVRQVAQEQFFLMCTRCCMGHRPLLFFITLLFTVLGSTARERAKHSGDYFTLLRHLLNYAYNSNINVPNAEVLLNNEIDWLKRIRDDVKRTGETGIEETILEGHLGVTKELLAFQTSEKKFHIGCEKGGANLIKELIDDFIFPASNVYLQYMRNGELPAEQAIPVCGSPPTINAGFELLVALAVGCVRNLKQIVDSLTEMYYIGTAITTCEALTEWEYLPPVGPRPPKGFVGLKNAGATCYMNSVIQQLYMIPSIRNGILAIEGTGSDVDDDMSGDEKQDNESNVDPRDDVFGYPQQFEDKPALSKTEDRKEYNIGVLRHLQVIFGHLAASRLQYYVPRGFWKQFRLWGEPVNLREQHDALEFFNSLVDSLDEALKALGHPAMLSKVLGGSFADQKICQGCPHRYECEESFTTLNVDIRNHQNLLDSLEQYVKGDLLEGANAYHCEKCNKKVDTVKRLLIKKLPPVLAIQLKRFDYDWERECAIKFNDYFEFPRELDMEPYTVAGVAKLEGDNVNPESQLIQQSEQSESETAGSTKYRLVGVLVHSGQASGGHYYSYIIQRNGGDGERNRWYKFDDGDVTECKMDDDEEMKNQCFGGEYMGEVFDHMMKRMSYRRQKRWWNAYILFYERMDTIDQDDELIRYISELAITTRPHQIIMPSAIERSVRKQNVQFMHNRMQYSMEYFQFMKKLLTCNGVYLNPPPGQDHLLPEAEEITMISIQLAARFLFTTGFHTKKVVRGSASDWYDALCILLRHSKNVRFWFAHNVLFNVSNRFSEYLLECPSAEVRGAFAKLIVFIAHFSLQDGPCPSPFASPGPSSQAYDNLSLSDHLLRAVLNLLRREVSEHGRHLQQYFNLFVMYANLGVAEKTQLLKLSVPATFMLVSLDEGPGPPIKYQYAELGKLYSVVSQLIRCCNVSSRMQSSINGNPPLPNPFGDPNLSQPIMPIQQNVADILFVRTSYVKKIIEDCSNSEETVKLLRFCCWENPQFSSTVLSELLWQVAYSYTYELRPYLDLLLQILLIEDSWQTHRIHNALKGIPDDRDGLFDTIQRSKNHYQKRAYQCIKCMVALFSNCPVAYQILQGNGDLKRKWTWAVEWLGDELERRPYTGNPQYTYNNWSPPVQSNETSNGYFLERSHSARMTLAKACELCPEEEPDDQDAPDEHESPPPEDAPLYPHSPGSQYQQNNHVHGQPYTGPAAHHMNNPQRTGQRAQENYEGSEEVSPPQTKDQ

selectivity of DUB inhibition (USP9x; HA-Ub-VS labeling): selectively inhibits USP9x
EC50 (USP9x; compound 40 minutes, then HA-Ub-VS (1.5 μM) 20 minutes): 3 ± 3 µM
effect on proteasome activity (20S proteasome): no effect on proteasome activity
SMILES: CC(C)(C)OC(=O)NCc1cccc(N=C=S)c1 [TU50]
EC50 (BaF3.p210; BaF3.p210, single dose, 48 h, Alamar Blue, read-out: EC50, viable cells): 8 ± 2 µM
selectivity of proliferation inhibition over cell panel (BaF3.p210; panel of 8 cell lines, 48 h and 72 h): selectively inhibits proliferation of cells that depend on USP9x
apoptosis of K562 cells (K562 cells): induce apoptosis of K562 cells
Bcr-Abl kinase level (Bcr-Abl kinase; TU50 4 hours): cause degradation of Bcr-Abl kinase

SMILES: Cl.NCc1ccc(OC(=O)Oc2ccc(Br)cc2)cc1 [compound 4]
HA-Ub-VS binding to USP9x and USP7 [1]: prevents binding of HA-Ub-VS to USP9x (290 kDa) and USP7 (150 kDa) selectively
inhibition of UCHL1/3 (UCH-L5, UCH-L3, UCH-L1): At higher concentrations UCHL1/3 (37 kDa) are inhibited
BCR/Abl level (Bcr-Abl kinase; compound numbered as in FIG. 3): decrease in BCR/Abl
K48- and K63-linked ubiquitin (MCF7 cells): elevated K48- and K63-linked ubiquitin
SMAD4 monoubiquitination (SMAD4): increase in SMAD4 monoubiquitination
inhibition of caspases or the proteasome [2]: does not inhibit caspases or the proteasome
GFP fluorescence of G76V ubiquitin-GFP [3]: increases
MDM2 and P53 levels (USP7): degradation of MDM2 and the stabilization of P53

inhibition of cathepsin C (cathepsin C): inhibits cathepsin C
SMILES: CC(C)(C)OC(=O)NCc1ccc(OC(=O)Oc2ccccc2)cc1 [compound 14]
